Assay results from patent US20230201267A1, “RETINAL PIGMENTED EPITHELIUM AND PHOTORECEPTOR DUAL CELL AGGREGATES AND METHODS OF USE THEREOF” (FUJIFILM Cellular Dynamics, Inc., priority 2020, published 2023).

Legend:
[1] = system: RPE and PRP dual cell aggregates; experiment: Dual cell aggregate formation in thaw medium with or without Y-27632 (phase contrast); type: cell-based, human; conditions: Y-27632 in thaw medium (RPE-MM), 1 RPE:8 PRP, compared with thaw without Y-27632
Method: (§1) To characterize a dual cell aggregate culture, RPE were thawed in RPE-MM and PRP were thawed in RMN. If PRP were thawed as aggregates, either all aggregates or a sample of aggregates were TrypLE dissociated. Both cell types were counted using a ViCELL XR. RPE and PRP were combined at a desired cell ratio and cell number in RPE-MM and placed in a ULA T-75 flask on a belly dancer at 16-18 RPM to permit aggregate formation. Alternately, aggregates could be formed in a PBS mini vessel. To test in vivo function, some aggregates were transplanted into the subretinal space of a rat retina two days after aggregate formation. Surgery was performed to analyze the retinas. Aggregates or rat retinas were cryosectioned and analyzed by immunocytochemistry.
Dual cell aggregate formation without Y-27632 in thaw medium: As a first attempt to co-culture RPE and PRP as aggregates, RPE and PRP were thawed as single cells at a ratio of 1 RPE:3 PRP. Phase contrast images were captured at various time points (FIG. 1). […] However, after 21 and 69 days, aggregates had formed and appeared to be fairly regular, though skewed to a high RPE ratio, relative to PRP. Based on this experiment, all future experiments used the ROCK inhibitor Y-27632 when thawing RPE and maintained a lower RPE:PRP ratio. […]

[2] = system: RPE and PRP dual cell aggregates; experiment: Effect of PGE-2 on long-term dual cell aggregate culture (immunocytochemistry); type: cell-based, human; conditions: with vs without PGE2
Method: as §1
Effect of PGE-2 on long-term dual cell aggregate culture: During RPE culture, Prostaglandin E2 (PGE-2) is added to the culture medium from day 54 to day 68 of differentiation. PGE-2 is a hormone that stimulates RPE primary cilia formation and polarization, and its effect was tested on the dual cell aggregates (FIGS. 3-5). With this formulation of RPE and PRP, RPE generally appeared to form a majority of the aggregate, even after one month of culture. PRP did appear to mature after two months, indicated by the presence of PRPH2, an outer segment marker.

| SMILES | aggregate formation efficiency [1] | PRP organization in dual cell aggregates ([2]; one month after aggregate formation, initial ratio 1 RPE:8 PRP) | RPE organization or rod formation in dual cell aggregates ([2]; one month of culture) |
| --- | --- | --- | --- |
| C[C@@H](N)[C@H]1CC[C@H](C(=O)Nc2ccncc2)CC1 [Condition Y-27632] | qualitatively more efficient |  |  |
| CCCCC[C@H](O)/C=C/[C@H]1[C@H](O)CC(=O)[C@@H]1C/C=C\CCCC(=O)O [PGE2, Prostaglandin E2] |  | Differences in PRP organization were apparent | did not show striking differences |
